Reference: US10206907B2, “Compounds useful for the treatment of degenerative and inflammatory diseases” (GALAPAGOS NV, priority 2008, dated 2019)

Test system: Collagen antibody-induced arthritis
Assay: MAB model (collagen antibody-induced arthritis)
Format: in vivo, mouse
Details: 30 mg/kg p.o., DBA/J mice
Method: The MAB model allows a rapid assessment of the modulation of an RA-like inflammatory response by therapeutics ([…]. Nature Protocols (2006) 2512-2516: Collagen antibody-induced arthritis). DBA/J mice were injected i.v. with a cocktail of mAbs directed against collagen II. One day later, compound treatment was initiated (vehicle: 10% (v/v) HPβCD). Three days later, mice received an i.p. LPS injection (50 μg/mouse), resulting in a fast onset of inflammation. Compound treatment was continued until 10 days after the mAb injection. Inflammation was read by measuring paw swelling and recording the clinical score of each paw. The cumulative clinical arthritis score of four limbs was presented to show the severity of inflammation. A scoring system is applied to each limb using a scale of 0-4, with 4 being the most severe inflammation. • 0 Symptom free • 1 Mild, but definite redness and swelling of one type of joint such as the ankle or wrist, or apparent redness and swelling limited to individual digits, regardless of the number of affected digits • 2 Moderate redness and swelling of two or more types of joints • 3 Severe redness and swelling of the entire paw including digits • 4 Maximally inflamed limb with involvement of multiple joints

## N#Cc1ccc(COc2ccc(-c3cccc4nc(NC(=O)C5CC5)nn34)cc2)cn1 [Compound 176, N-(5-(4-((6-cyanopyridin-3-yl)methoxy)phenyl)-[1,2,4]triazolo[1,5-a]pyridin-2-yl)cyclopropanecarboxamide]
  clinical score: reduced the clinical score with statistical significance
  inflammation: significantly reduced inflammation
